Measurements from ChEMBL document CHEMBL5365423, “6-Azaspiro[2.5]octanes as small molecule agonists of the human glucagon-like peptide-1 receptor” (Bioorg Med Chem Lett, 2023).

How the values were obtained:
[1] = Intrinsic clearance in human hepatocytes measured per million cells; type: ADME, cell-based, Hepatocyte; settings: read-out: CLH
[2] = target: T1, Glucagon-like peptide 1 receptor (Homo sapiens, UniProt P43220); experiment: Displacement of [125I]-GLP1 from GLP-1 receptor (unknown origin) expressed in CHO cells membrane pre-incubated for 10 mins followed by [125I]-GLP1 addition and measured after 180 mins by microbeta scintillation counting method; type: cell membranes
T1 sequence (P43220 whole entry): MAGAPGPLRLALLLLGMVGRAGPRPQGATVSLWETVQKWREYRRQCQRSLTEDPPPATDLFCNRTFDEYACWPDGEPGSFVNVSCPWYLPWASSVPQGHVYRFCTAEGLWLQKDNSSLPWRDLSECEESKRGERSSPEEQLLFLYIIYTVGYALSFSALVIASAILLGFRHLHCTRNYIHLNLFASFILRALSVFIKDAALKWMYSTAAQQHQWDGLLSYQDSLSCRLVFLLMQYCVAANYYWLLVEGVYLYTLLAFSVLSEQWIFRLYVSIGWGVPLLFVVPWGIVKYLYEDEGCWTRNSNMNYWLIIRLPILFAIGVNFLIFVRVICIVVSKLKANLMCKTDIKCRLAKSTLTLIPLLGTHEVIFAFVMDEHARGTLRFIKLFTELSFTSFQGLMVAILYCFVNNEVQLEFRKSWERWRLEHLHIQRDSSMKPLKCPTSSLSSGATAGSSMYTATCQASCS

[3] = Apparent permeability in MDCK cells by LC-MS/MS analysis; type: ADME, cell-based, Canis lupus familiaris; settings: dog
[4] = target: T1, Glucagon-like peptide 1 receptor; experiment: Agonist activity at GLP-1 receptor (unknown origin) expressed in CHO cells at 20 uM in presence of BETP by cAMP assay relative to control; type: functional, cell-based; settings: filed as agonist
[5] = target: Voltage-gated inwardly rectifying potassium channel KCNH2 (Homo sapiens, UniProt Q12809); experiment: Inhibition of human ERG dofetilide binding assay; type: toxicity
Voltage-gated inwardly rectifying potassium channel KCNH2, sequence (Q12809 whole entry): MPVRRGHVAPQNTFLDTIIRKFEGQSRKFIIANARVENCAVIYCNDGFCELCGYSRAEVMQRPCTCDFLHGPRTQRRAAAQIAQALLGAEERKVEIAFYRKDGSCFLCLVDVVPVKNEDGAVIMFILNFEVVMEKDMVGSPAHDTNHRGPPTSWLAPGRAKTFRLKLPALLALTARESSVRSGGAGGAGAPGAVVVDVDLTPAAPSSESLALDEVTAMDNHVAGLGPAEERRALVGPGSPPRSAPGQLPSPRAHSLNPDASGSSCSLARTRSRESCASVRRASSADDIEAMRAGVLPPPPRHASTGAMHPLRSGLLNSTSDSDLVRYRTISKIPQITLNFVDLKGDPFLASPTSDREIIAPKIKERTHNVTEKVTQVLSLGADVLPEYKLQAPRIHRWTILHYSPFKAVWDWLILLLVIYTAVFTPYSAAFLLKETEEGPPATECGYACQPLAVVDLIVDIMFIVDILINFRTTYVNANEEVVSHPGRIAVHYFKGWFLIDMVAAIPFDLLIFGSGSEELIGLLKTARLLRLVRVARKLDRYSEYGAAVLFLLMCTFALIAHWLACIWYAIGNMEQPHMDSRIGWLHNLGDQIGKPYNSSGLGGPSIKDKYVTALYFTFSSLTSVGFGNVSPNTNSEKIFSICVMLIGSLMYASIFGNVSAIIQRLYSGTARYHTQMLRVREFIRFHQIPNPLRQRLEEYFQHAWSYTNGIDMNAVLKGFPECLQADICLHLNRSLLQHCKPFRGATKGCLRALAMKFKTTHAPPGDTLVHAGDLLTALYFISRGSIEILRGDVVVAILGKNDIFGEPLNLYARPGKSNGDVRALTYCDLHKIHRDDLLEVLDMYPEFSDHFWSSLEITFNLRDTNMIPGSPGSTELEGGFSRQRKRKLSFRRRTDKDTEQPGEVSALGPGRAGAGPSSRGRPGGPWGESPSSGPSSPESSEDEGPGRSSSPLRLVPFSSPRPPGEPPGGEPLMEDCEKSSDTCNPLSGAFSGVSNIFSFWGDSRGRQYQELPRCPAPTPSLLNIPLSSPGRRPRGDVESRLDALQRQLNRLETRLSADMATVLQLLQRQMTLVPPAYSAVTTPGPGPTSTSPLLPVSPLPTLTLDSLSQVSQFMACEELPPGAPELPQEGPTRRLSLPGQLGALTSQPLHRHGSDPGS

[6] = target: T2, CYP1A2 (Homo sapiens, UniProt P05177); experiment: Inhibition of CYP1A2 (unknown origin) at 3 uM relative to control; type: ADME
T2 sequence (P05177 whole entry): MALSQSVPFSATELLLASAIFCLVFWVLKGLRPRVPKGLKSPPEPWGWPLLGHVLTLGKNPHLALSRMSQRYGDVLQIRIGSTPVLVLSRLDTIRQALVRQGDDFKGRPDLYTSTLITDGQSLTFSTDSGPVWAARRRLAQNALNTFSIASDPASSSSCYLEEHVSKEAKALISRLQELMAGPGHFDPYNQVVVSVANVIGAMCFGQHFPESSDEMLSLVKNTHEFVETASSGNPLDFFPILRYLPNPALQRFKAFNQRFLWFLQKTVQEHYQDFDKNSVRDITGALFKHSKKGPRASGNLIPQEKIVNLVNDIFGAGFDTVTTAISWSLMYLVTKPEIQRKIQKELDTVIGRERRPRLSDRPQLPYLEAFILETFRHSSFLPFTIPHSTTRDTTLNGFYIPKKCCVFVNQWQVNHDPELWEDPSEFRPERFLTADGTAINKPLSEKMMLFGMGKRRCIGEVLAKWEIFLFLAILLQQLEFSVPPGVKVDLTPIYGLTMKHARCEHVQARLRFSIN

[7] = target: T3, CYP2C8 (Homo sapiens, UniProt P10632); experiment: Inhibition of CYP2C8 (unknown origin) at 3 uM relative to control; type: ADME
T3 sequence (P10632 whole entry): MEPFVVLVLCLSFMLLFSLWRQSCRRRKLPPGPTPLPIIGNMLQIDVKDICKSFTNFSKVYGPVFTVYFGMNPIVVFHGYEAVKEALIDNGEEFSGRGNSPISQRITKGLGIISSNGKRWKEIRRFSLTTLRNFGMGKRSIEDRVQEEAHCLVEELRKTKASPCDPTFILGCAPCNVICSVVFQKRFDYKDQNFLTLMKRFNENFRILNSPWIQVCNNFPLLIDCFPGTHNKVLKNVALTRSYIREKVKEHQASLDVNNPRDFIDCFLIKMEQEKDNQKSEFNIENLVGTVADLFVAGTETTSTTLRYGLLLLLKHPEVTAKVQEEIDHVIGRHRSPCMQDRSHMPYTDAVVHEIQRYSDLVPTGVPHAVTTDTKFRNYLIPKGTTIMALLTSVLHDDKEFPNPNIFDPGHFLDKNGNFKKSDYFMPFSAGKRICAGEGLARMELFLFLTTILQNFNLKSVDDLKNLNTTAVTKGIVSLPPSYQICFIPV

[8] = target: CYP2C9 (Homo sapiens, UniProt P11712); experiment: Inhibition of CYP2C9 (unknown origin) at 3 uM relative to control; type: ADME
CYP2C9, sequence (P11712 whole entry): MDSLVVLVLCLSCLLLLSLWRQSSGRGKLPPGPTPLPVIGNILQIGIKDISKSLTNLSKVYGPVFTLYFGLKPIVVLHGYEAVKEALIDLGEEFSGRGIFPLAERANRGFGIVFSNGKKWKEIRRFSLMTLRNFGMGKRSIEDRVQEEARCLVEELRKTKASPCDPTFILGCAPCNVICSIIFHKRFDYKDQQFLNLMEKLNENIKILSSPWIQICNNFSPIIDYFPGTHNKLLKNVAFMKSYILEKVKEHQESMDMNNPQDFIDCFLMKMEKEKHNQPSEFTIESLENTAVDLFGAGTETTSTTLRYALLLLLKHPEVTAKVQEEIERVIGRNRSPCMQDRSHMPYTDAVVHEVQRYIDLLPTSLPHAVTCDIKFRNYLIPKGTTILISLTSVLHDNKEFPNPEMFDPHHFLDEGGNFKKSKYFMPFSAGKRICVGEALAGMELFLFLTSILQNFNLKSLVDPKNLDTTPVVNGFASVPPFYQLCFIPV

[9] = target: CYP2D6 (Homo sapiens, UniProt P10635); experiment: Inhibition of CYP2D6 (unknown origin) at 3 uM relative to control; type: ADME
CYP2D6, sequence (P10635 whole entry): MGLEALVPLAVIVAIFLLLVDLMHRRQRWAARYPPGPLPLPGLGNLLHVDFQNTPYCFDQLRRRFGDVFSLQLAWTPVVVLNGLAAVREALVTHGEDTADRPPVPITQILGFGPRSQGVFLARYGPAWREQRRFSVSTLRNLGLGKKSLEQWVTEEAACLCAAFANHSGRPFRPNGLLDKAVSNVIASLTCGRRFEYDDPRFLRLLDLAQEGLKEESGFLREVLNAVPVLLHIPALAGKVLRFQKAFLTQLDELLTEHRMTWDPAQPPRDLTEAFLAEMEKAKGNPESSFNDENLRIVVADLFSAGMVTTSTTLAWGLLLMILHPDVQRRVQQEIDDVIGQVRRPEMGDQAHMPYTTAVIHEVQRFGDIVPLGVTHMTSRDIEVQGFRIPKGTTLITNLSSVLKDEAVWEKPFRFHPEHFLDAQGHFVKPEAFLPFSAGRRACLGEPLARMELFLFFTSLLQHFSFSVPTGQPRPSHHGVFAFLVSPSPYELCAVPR

[10] = target: CYP3A4 (Homo sapiens, UniProt P08684); experiment: Inhibition of CYP3A4 (unknown origin) at 3 uM relative to control; type: ADME
CYP3A4, sequence (P08684 whole entry): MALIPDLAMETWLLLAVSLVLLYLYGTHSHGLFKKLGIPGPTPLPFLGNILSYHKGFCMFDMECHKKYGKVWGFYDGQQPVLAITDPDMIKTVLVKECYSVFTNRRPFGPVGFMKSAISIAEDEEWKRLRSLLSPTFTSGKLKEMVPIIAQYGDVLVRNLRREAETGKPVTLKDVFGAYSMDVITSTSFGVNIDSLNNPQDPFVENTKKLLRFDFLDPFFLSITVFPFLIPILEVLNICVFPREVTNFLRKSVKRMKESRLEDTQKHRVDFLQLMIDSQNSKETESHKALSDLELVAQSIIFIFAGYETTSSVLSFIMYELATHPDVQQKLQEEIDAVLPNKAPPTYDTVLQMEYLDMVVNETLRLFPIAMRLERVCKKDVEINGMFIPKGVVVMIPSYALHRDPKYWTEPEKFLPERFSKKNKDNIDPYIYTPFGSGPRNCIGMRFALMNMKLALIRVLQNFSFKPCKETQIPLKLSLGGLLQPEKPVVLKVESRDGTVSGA

[11] = test system: PDE3A1; experiment: Inhibition of PDE3A1 (unknown origin); type: toxicity, Homo sapiens
[12] = Drug metabolism in human hepatocytes assessed as oxidation by LC/MS/MS analysis; type: ADME, cell-based, Hepatocyte
[13] = Drug metabolism in human hepatocytes assessed as glucuronidation by LC/MS/MS analysis; type: ADME, cell-based, Hepatocyte
[14] = Lipophilicity, logD of compound; type: physicochemical; settings: octanol/water

Compound | hepatocyte CLint [1] [µL/min/1e6 cells] | EC50 [2] [µM] | Papp [3] [nm/s] | other results
O=C(O)c1ccc2nc([C@H]3CC34CCN(c3nc(OCc5ccc(Cl)cc5F)ncc3F)CC4)n(C[C@H]3CCO3)c2c1 | 21 |  | 50 | 
N#Cc1ccc(COc2nc(N3CCC4(CC3)C[C@@H]4c3nc4ccc(C(=O)O)cc4n3C[C@@H]3CCO3)c(F)cc2F)c(F)c1 | 37 | 0.0041 | 50 | 
Cn1c(CN2CCC(c3nc(OCc4ccc(Cl)cc4F)ncc3F)CC2)nc2ccccc21 |  |  |  | Activity [4]: 70%
O=C(O)c1ccc2nc([C@H]3CC34CCN(c3nccc(OCc5ccc(Cl)cc5F)n3)CC4)n(C[C@@H]3CCO3)c2c1 | 30 | 0.032 | 20 | 
O=C(O)c1ccc2nc([C@H]3CC34CCN(c3ncc(F)c(OCc5ccc(Cl)cc5F)n3)CC4)n(C[C@@H]3CCO3)c2c1 | 27 | 0.019 | 30 | 
Cn1c(CC2CCN(c3nc(OCc4ccc(Cl)cc4F)ncc3F)CC2)nc2ccccc21 |  |  |  | Activity [4]: 40%
O=C(O)c1ccc2nc([C@H]3CC34CCN(c3nc(OCc5ccc(Cl)cc5F)ncc3F)CC4)n(C[C@@H]3CCO3)c2n1 | 14 | 0.015 | 70 | 
Cn1c(CC2CCN(c3nc(OCc4ccc(Cl)cc4F)ncc3F)CC2)nc2ncccc21 |  |  |  | Activity [4]: 75%

Now from value to molecule, other results behind:

hepatocyte CLint [1] [µL/min/1e6 cells] | EC50 [2] [µM] | Papp [3] [nm/s] | Compound | other results
23 | 0.015 | 70 | N#Cc1ccc(COc2cccc(N3CCC4(CC3)C[C@@H]4c3nc4ccc(C(=O)O)cc4n3C[C@@H]3CCO3)n2)c(F)c1 | 
32 | 0.0058 | 60 | N#Cc1ccc(COc2ccc(F)c(N3CCC4(CC3)C[C@@H]4c3nc4ccc(C(=O)O)cc4n3C[C@@H]3CCO3)n2)c(F)c1 | Ki [5]: > 40 µM; inhibition at 3 µM [6]: < 20%; inhibition at 3 µM [7]: 60%; inhibition at 3 µM [8]: < 20%; inhibition at 3 µM [9]: < 20%; inhibition at 3 µM [10]: < 20%; IC50 [11]: 0.409 µM; Drug metabolism [12]: Metabolite_Detected; Drug metabolism [13]: Metabolite_Detected; logD [14]: 2.3
20 | 0.014 | 50 | N#Cc1ccc(COc2nc(N3CCC4(CC3)C[C@@H]4c3nc4ccc(C(=O)O)cc4n3C[C@@H]3CCO3)ccc2F)c(F)c1 | 
7 |  | 100 | N#Cc1ccc(COc2cccc(C3CCN(Cc4nc5ccc(C(=O)O)cc5n4C[C@@H]4CCO4)CC3)n2)c(F)c1 [DANUGLIPRON] | 
